Results published in ChEMBL document CHEMBL5335804, “Design, synthesis and biological evaluation of 2-phenylaminopyrimidine derivatives as EGFR inhibitors” (Bioorg Med Chem Lett, 2024).

Tests used:
[1] = Cytotoxicity against human NCI-H838 cells harboring wild type EGFR at 500 nM; format: toxicity, cell-based; conditions: read-out: INH
BaF3 = test: cells; conditions: Mus musculus
[2] = system: Epidermal growth factor receptor (Homo sapiens), P00533 [L858R,T790M,C797S]; conditions: dose 500.0 nM
Chain of Epidermal growth factor receptor (Homo sapiens), P00533 [L858R,T790M,C797S] (P00533 whole entry T790M/C797S/L858R): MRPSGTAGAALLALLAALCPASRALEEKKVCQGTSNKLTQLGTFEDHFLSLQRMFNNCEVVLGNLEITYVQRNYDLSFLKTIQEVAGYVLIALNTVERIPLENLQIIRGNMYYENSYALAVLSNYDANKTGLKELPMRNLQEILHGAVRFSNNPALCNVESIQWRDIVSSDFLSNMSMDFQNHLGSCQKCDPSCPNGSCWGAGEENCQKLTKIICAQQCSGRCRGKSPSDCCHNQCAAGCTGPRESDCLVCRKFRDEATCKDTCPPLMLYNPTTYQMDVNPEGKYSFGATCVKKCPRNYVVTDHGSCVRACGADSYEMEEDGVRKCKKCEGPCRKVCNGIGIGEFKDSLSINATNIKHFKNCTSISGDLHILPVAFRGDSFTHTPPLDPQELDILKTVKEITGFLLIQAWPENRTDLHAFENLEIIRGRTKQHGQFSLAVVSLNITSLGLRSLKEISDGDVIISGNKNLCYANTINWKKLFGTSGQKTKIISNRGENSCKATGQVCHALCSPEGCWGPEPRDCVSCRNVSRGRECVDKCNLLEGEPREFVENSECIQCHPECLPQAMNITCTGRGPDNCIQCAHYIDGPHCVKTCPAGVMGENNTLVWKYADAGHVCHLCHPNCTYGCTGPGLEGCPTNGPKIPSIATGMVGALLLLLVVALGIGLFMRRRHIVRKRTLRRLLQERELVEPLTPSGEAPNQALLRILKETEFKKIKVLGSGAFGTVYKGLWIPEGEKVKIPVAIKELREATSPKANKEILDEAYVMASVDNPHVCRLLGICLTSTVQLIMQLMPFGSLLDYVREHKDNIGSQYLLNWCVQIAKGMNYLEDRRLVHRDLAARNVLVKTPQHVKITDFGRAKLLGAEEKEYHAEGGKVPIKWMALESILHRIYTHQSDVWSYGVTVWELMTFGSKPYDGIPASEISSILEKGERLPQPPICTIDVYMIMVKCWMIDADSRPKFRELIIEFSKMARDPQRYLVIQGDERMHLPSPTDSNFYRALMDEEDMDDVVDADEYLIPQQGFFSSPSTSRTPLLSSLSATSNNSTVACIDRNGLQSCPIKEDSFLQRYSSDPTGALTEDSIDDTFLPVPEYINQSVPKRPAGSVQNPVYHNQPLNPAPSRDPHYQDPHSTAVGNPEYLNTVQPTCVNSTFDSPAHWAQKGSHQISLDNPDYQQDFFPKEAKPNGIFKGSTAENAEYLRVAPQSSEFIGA

Structure (SMILES) | IC50 (BaF3) | inhibition [2] | cytotoxicity at 0.5 µM [1]
COc1cc(N2CCC(N3CCN(C)CC3)CC2)c(C)cc1Nc1nccc(-n2cc(CNC(CO)C(C)C)c(-c3ccccc3)n2)n1 (stereo not drawn) | 292 nM | – | 31.8%
COc1cc(N2CCC(N3CCN(C)CC3)CC2)c(C)cc1Nc1nccc(-n2cc(CN[C@@H](C)CO)c(-c3ccccc3)n2)n1 | 106 nM | – | 14.9%
COc1cc(N2CCC(N3CCN(C)CC3)CC2)ccc1Nc1ncc(Cl)c(Nc2ccccc2P(C)(C)=O)n1 [BRIGATINIB] | 542 nM | 84.6% | 92.4%

The next lines start with results.

IC50 (BaF3) | inhibition [2] | Structure (SMILES) | cytotoxicity at 0.5 µM [1]
260 nM | – | COc1cc(N2CCC(N3CCN(C)CC3)CC2)c(C)cc1Nc1nccc(-n2cc(CN[C@H](C)CO)c(-c3ccccc3)n2)n1 | 17.1%
485 nM | – | COc1cc(N2CCC(N3CCN(C)CC3)CC2)c(C)cc1Nc1nccc(-n2cc(CNCCO)c(-c3ccccc3)n2)n1 | 33.2%
143 nM | – | COc1cc(N2CCC(N3CCN(C)CC3)CC2)c(C)cc1Nc1nccc(-n2cc(CNC(C)CO)c(-c3ccccc3)n2)n1 (stereo not drawn) | 25.6%
